Literature values in patent publication US7220859B2, “Bicyclic heterocycles as cannabinoid receptor modulators” (Bristol-Myers Squibb Company, priority 2005, dated 2007).

Conditions: 16 week trial period

SMILES: Cc1c(C(=O)NN2CCCCC2)nn(-c2ccc(Cl)cc2Cl)c1-c1ccc(Cl)cc1 [SR-141716]
- body weight in human subjects: dose-dependently reduced body weight
